Results reported in a melting point compilation (Tetko et al.; mined from patent text by program, amines drawn as free bases though some values may be those of a salt).
Residues, ends and D or L forms follow the SMILES beside them. *: point of attachment. Tos = Cc1ccc(S(=O)(=O)*)cc1; Cbz = O=C(OCc1ccccc1)*; NHPh = c1ccc(N*)cc1

First: Cc1nc2c(-c3cccc(N4CCN(C)CC4)c3)cnn2c(N)c1-c1ccc(F)c(F)c1
Second: CC(C)(O)c1cnn2c(-c3ccc(F)c(-c4ccc(F)cc4C#N)c3)cnc2n1
The melting point of the first is higher: 216 to 219 °C for the first, 215 °C for the second.

First: Nc1cc2c(cc1[N+](=O)[O-])CC(CCO)C2 (centres undefined)
Second: CCN(CC)C(=O)c1cc(O)c(O)c([N+](=O)[O-])c1
The melting point of the first is lower: 89 to 91 °C for the first, 145 to 146 °C for the second.

First: NC(=O)c1cn(-c2ccccc2)nc1-c1ccc([N+](=O)[O-])o1
Second: O=Cc1cccn1-c1ccccc1[N+](=O)[O-]
The melting point of the first is higher: 236 to 238 °C for the first, 119 to 122 °C for the second.

First: COc1cccc(C=Cc2ccccc2)c1O
Second: COc1ccc(C=C2NC(=O)NC2=O)cc1OCc1ccccc1
The melting point of the first is lower: 85 to 87 °C for the first, 242 to 244 °C for the second.

First: COc1cc(C=CC(=O)c2cc(OC)c(OC)c(OC)c2)cc([N+](=O)[O-])c1O
Second: COC(=O)c1cc(C)c(C(=O)OC)c(OC)c1
The melting point of the first is higher: 123 to 125 °C for the first, 98 to 99 °C for the second.

First: O=Cc1cccn1-c1ccc2ccc3[nH]c(=O)c(=O)[nH]c3c2c1
Second: O=c1c2cc(F)c(Cl)nc2n(Cc2ccccc2)c(=O)n1OCc1ccccc1
The melting point of the first is higher: greater than 250 °C for the first, 209 to 210 °C for the second.

Compared with `Cn1c(-c2cc(C(C)(C)C)c(O)c(C(C)(C)C)c2)n[nH]c1=O`, `CC(C)=C1Cc2ccc3nc(C)oc3c2C1=O` is lower in melting point: 308 to 312 °C for the first, 156 to 159 °C for the second.

First: CCCCCCOc1cc(CC#N)c(OCCCCCC)cc1CC#N
Second: CCCCCCCc1ccc(C(=O)CCCCC(=O)O)cc1[N+](=O)[O-]
The melting point of the first is higher: 96 to 97 °C for the first, 53 to 56 °C for the second.

Compared with `COc1cc([N+](=O)[O-])c2nccc(C)c2c1OCCCCCc1cccs1`, `COC(C)Cc1ccc(OCCNc2ncnc3ccccc23)c(C)c1` (centres undefined) is higher in melting point: 51 to 54 °C for the first, 95 to 97 °C for the second.

First: Cc1cc(C)c(-c2csc(N)n2)c(C)c1
Second: CC(O)Cn1nc2c3c(cc(N)cc31)CCC2 (centres undefined)
The melting point of the first is higher: 138 °C for the first, 125 to 127 °C for the second.

First: c1ccc(Cc2nnn[nH]2)c(COc2ccc3oc(-c4nc5c(s4)NCCCC5)cc3c2)c1
Second: CCN1c2ncc(CCc3cccc(N)c3)cc2C(=O)N(C)c2ccc(Cl)nc21
The melting point of the first is lower: 110 to 118 °C for the first, 121 to 123 °C for the second.

First: O=C1c2ccccc2C(=O)N1OCF
Second: CCOc1cc([N+](=O)[O-])ccc1N1C(=O)c2ccccc2C1=O
The melting point of the first is lower: 126 to 127 °C for the first, 204 to 206 °C for the second.

First: CC(=O)NOCc1nc2c(N)nc3c(c2n1CC(C)C)CCCC3
Second: Cc1ccccc1C(=O)CCc1c(C(=O)N2CCCC2)cc2c(nc(C)n2C)c1O
The melting point of the first is lower: 187 to 188 °C for the first, 216 to 217 °C for the second.

First: CC1(C)CCC(C)(C)c2cc(-c3cc([N+](=O)[O-])ccc3-c3ccccc3)ccc21
Second: O=C(O)C1=Cc2ccc(-c3ccccc3)cc2OC1C(F)(F)F (centres undefined)
The melting point of the first is lower: 181 to 183 °C for the first, 209 to 212 °C for the second.

First: CC(C)(C)OC(=O)Oc1ccc(C(=O)c2ccc(OC(=O)OC(C)(C)C)cc2)cc1
Second: COC(=O)c1cc(O)cc(OCCCOc2ccc(OCc3ccccc3)cc2)c1
The melting point of the first is higher: 141 to 143 °C for the first, 120 to 122 °C for the second.

Compared with `C[C@H](NC(=O)[C@H](C)NC(=O)OCc1ccccc1)C(=O)O` (Cbz-Ala-Ala-OH), `CC(=O)SCC(Cc1ccccc1)NC(=O)OC(C)(C)C` (centres undefined) is lower in melting point: 203 to 205 °C for the first, 92 to 94 °C for the second.

Compared with `CS(=O)(=O)c1ccc(-c2cnn(CC(=O)c3csc4ccccc34)c(=O)c2-c2ccc(F)cc2)cc1`, `CS(=O)(=O)c1ccc(-c2cnn(-c3ccc(F)c(F)c3)c(=O)c2Cc2ccc(F)c(F)c2)cc1` is lower in melting point: 183 to 184 °C for the first, 177 to 179 °C for the second.

First: C[Si](C)(C)C=Cc1cn(C2OC(CO)C(O)C2F)c(=O)[nH]c1=O (centres undefined)
Second: COc1ccc(/C=C/c2nc3c([nH]2)c(=O)n(C)c(=O)n3C)c(OC)c1OC
The melting point of the first is lower: 164 to 165 °C for the first, 265 to 266 °C for the second.

First: CNC(=S)NS(=O)(=O)c1cc(CCNC(=O)c2cc(Cl)ccc2OC)ccc1OCCOC
Second: COc1cc(C(=O)NS(C)(=O)=O)cc(OC)c1-c1ccc(C[C@H](NC(=O)c2c(Cl)cccc2Cl)C(=O)O)cc1
The melting point of the first is lower: 134 °C for the first, 277 to 278 °C for the second.

Compared with `O=CCC1Cc2ccc(Br)cc2C1=O` (racemic), `CC[C@@H](C(N)=O)n1nnc2cc(Br)ccc21` is higher in melting point: 84 °C for the first, 205 to 207 °C for the second.

First: CN1C(=O)C(=CC(=O)O)SC1=Nc1ccc(Cl)c(Cl)c1
Second: O=C(O)CN1C(=O)C(=Cc2ccc(Cc3cccnc3)s2)SC1=S
The melting point of the first is lower: 225 to 226 °C for the first, 254 to 256 °C for the second.

Compared with `CCOC(=O)C(=O)N1CCN(c2ccccc2C(C)(C)C)CC1`, `CCCOC(=O)C1=C(C)NC(C)=C(C(=O)OCC)C1c1ccccc1C#N` (centres undefined) is higher in melting point: 95 to 98 °C for the first, 156 °C for the second.

First: O=C(O)c1cc(=O)cc(-c2cccc3ccccc23)o1
Second: CCCc1oc(C)cc(=O)c1C(=O)Nc1ccccc1
The melting point of the first is higher: 248 to 249 °C for the first, 133 to 134 °C for the second.

First: Cc1cccc2c(=O)[nH]c(N3CCN(CCCCN4CCN(C)CC4)CC3)cc12
Second: CSc1nn2c(N3CCN(Cc4ccccc4)CC3)cc(C)nc2c1S(=O)(=O)c1ccccc1
The melting point of the first is higher: 202 to 203 °C for the first, 156 to 158 °C for the second.

First: CNC(=O)c1ccc(C=CC(=O)NCC(=O)N(C)c2ccc(C)c(COc3cccc4c3nc(S)n4C)c2C)cc1
Second: Cc1ccc2cccc(OCc3c(Cl)ccc(S(N)(=O)=O)c3Cl)c2n1
The melting point of the first is higher: 278 to 292 °C for the first, 206 to 208 °C for the second.

First: O=C(c1ccc(-c2cnc3c(c2)N(Cc2cc(F)ccc2F)CCN3)cn1)N1CCOCC1
Second: O=C(c1cccs1)c1cnn2c(-c3ccc(F)c(Br)c3)ccnc12
The melting point of the first is higher: 111 to 113 °C for the first, 74 to 76 °C for the second.

First: O=c1[nH]c2scnc2c2ccccc12
Second: COc1cc(CNC(=O)c2nc3sccc3c(=O)[nH]2)ccc1Br
The melting point of the first is higher: greater than 200 °C for the first, 196 to 198 °C for the second.

First: CCN(CC)C(=O)COC(=O)C(C)c1ccc2cc(OC)ccc2c1 (centres undefined)
Second: COc1ccc(C[C@H](CC(=O)N2CCOCC2)C(=O)OCc2ccccc2)cc1
The melting point of the first is higher: 89 to 89.5 °C for the first, 77 to 79 °C for the second.

First: CCC(=O)C1=CC=C(OC)C(Cl)(Cl)C1
Second: CCOC(=O)C1(C(=O)Nc2ccc(Br)cc2C)CC1
The melting point of the first is lower: 51 to 54 °C for the first, 89.5 to 90 °C for the second.

First: N#Cc1cccc(C(=O)N2CCN(c3ccc(NC(=O)c4ccccc4-c4ccc(C(F)(F)F)cc4)cc3)CC2)c1
Second: O=C(NCCO)c1ccc(-c2cccc3cc(Cc4cccc(C(F)(F)F)c4)sc23)cc1
The melting point of the first is higher: 178 to 180 °C for the first, 120 to 121 °C for the second.

Compared with `CC(C)c1cc(S(=O)(=O)c2c(Br)cc(CC(=O)O)cc2Br)ccc1O`, `Oc1c(Br)cc2oc3ccccc3c2c1Br` is higher in melting point: 171 to 172 °C for the first, 176 to 178 °C for the second.

First: O=C1Cc2cc(C3=NNC(=O)C4CCC34)ccc2N1 (centres undefined)
Second: CN1C(=O)C[C@]2(c3ccccc3)CCCC[C@H]2C1=O (relative stereo)
The melting point of the first is higher: 309 to 312 °C for the first, 151 to 153 °C for the second.

First: Cc1nc(C=O)c2n1-c1ccc(Cl)cc1C(c1ccccc1)=NC2
Second: FC(F)(F)CN1CCN=C(c2ccccc2)c2cc(Cl)ccc21
The melting point of the first is higher: 218 to 220 °C for the first, 164 to 165 °C for the second.

First: COC(=O)[C@H]1NC(=O)[C@H]1N (relative stereo)
Second: CC(=O)OCC(=O)C1(O)C(C)CC2C3CCC4=CC(=O)CCC4(C)C3=CCC21C (centres undefined)
The melting point of the first is lower: 59 to 61 °C for the first, 197 to 201 °C for the second.

Compared with `CCCCCCCCCCc1csc2c1sc1c2sc2c3scc(CCCCCCCCCC)c3sc21`, `C=CC[N+]([O-])(CCCCCCCCCCCCCCCCCC)CCCCCCCCCCCCCCCCCC` is lower in melting point: 108 °C for the first, 59 to 64 °C for the second.

Compared with `O=C(O)Cc1ccc(SCCNC(=O)C2Cc3ccccc3N2S(=O)(=O)c2ccc(-c3ccccc3C(F)(F)F)cc2)c(Cl)c1` (centres undefined), `Cc1ccc(S(=O)(=O)N[C@@H](C)C(=O)N2CCC[C@H]2C(=O)Nc2ccccc2)cc1` (Tos-Ala-Pro-NHPh) is higher in melting point: 86 °C for the first, 145 to 147 °C for the second.

First: Cc1ccc2c(c1)N(C1CC1)CNS2(=O)=O
Second: Cc1cc2c3c(c1)[nH]c(=O)n3CC(C)NC2 (centres undefined)
The melting point of the first is lower: 157 to 158 °C for the first, 199 °C for the second.

First: COc1ccc(CSC(C)(C)C(O)(CO)c2ccc(F)cc2F)cc1 (centres undefined)
Second: CSc1nccc(-c2c[nH]c(=O)n2-c2ccc(F)cc2)n1
The melting point of the first is lower: 113 °C for the first, 260 to 261 °C for the second.

First: O=S(=O)(Nc1cccc(CCOCc2ccc(-c3ccc(OC(F)(F)F)cc3)cc2F)c1)C(F)(F)F
Second: COC(=O)c1ccc(-c2nc(-c3cc(C(F)(F)F)cc(C(F)(F)F)c3)co2)cc1
The melting point of the first is lower: 114 to 115 °C for the first, 180 to 181 °C for the second.

First: Cc1c(C#N)oc2c(c1=O)COc1ccccc1-2
Second: CN(C)S(=O)(=O)NCC1COc2ccccc2O1 (centres undefined)
The melting point of the first is higher: 179 to 181 °C for the first, 76 to 78 °C for the second.

First: O=C(O)c1cc(Cl)cc(Cl)c1OC1CCOC1=O (centres undefined)
Second: Nc1ccc(CCC(=O)Nc2ccc(Cl)cc2Cl)cc1N
The melting point of the first is lower: 117 to 120 °C for the first, 149 to 150 °C for the second.

First: CC(C)CCCC(C)C1CCC2C3C=CC4=CC(O)CC(O)C4(C)C3CCC12C (centres undefined)
Second: O=C(O)CCn1c(=O)n(CCCN2CCC(OC(c3ccccc3)c3ccccc3)CC2)c(=O)c2ccccc21
The melting point of the first is lower: 120 to 121 °C for the first, 237 to 238 °C for the second.

First: Oc1ccc(OCC(O)CNCCNc2cccc3[nH]ncc23)cc1 (centres undefined)
Second: CC(C)(CCn1ccnc1)NCC(O)c1ccc(OCc2ccccc2)c(NC(N)=O)c1 (centres undefined)
The melting point of the first is higher: 151 to 153 °C for the first, 142 to 143 °C for the second.

Compared with `CCCCn1c(O)nc2c(N)ncnc21`, `C[Si](C)(C)Sc1ncn([Si](C)(C)C)n1` is lower in melting point: 222 to 224 °C for the first, 90 to 94 °C for the second.

Compared with `C#Cc1sc(C2=NOC(c3cc(Cl)cc(Cl)c3)(C(F)(F)F)C2)cc1C` (centres undefined), `N#Cc1ccc2c(c1)Sc1ccccc1C=C2` is higher in melting point: 105 to 107 °C for the first, 108 to 110 °C for the second.

First: O=S(=O)(Nc1cccnc1Nc1ccccc1)c1ccc(Oc2ccccc2)cc1
Second: Cc1nc(-c2ccccc2)nc(NCC(=O)N(C)c2ccccc2)c1Cl
The melting point of the first is higher: 164 to 166 °C for the first, 154 to 155 °C for the second.

First: Cc1ccc([N+](=O)[O-])c(C)c1C(=O)c1c[nH]cn1
Second: O=[N+]([O-])c1ccc(F)cc1CS(=O)(=O)c1ccccc1
The melting point of the first is higher: 245 to 249 °C for the first, 169 to 171 °C for the second.

First: CC(C)=CCOc1ccc(C(=O)C=Cc2ccco2)c(O)c1
Second: COc1cccc2c(=O)c(CO)cn(C)c12
The melting point of the first is lower: 75 to 77 °C for the first, 162 to 167 °C for the second.

Compared with `Clc1ccc2c(NCCN3CCCCC3)ccnc2c1`, `CC1(C)CN=C(c2cnc(S(C)(=O)=O)c(Cl)c2)O1` is lower in melting point: 148 to 151 °C for the first, 102 to 105 °C for the second.

Work on `CS(=O)(=O)CN=C(N)NCCSCc1csc(NC(N)=NCC(F)(F)C(F)(F)F)n1` yielded a melting point of 149 to 151 °C.
